pIC50: −log10 of the molar value.
tested on: AEA cellular uptake (U937 cells); test: [3H]-AEA cellular uptake inhibition in U937 cells; assay type: cell-based; details: Homo sapiens, U-937, U937 cells, final 100 nM AEA with 0.5 nM [3H]-AEA, 15 min at 37° C.; read-out: AEA uptake IC50
Method: [^3H]-AEA Cellular Uptake
Screening for AEA cellular uptake inhibition was performed in a semi-automated procedure: Pipetting and washing steps were performed by a Biomek3000 laboratory workstation. First, required amounts of U937 cells were centrifuged at 100×g for 5 min and resuspended in RPMI (37° C.) to a final concentration of 2×10^6 cells/mL. Then, 250 μL of cell suspension (0.5×10^6 cells per sample) were transferred into AquaSil™ silanized glass vials (Chromacol 1.1-MTV) in 96-well format. After addition of 5 μL vehicle (DMSO) or compounds the cells were incubated at 37° C. for 15 min. As positive controls OMDM-2 and UCM707 were used at 10 μM in each run. The ETI-T compounds were measured at up to 7 concentrations in triplicates from 100 pM-100 μM. After pre-incubation, a mixture of 0.5 nM [ethanolamine-1-^3H]-AEA, (60 Ci/mmol) and 99.5 nM of cold AEA (final 100 nM) was added and samples were incubated at 37° C. for another 15 min. The reaction was stopped by rapid filtration over UniFilter-96 GF/C filters (PerkinElmer) pre-soaked with PBS 0.25% BSA. Cells were washed three times with 100 μL ice-cold PBS buffer containing 1% fatty acid free BSA. After drying, 45 μL MicroScint 20 scintillation cocktail (PerkinElmer, Waltham, Mass., US) was added to the wells and the plate was sealed. Radioactivity was measured by liquid scintillation counting on a PerkinElmer Wallac Trilux MicroBeta 1450 during 2 min. Non-specific binding of [^3H]AEA (100 nM) to the glass vials was never higher than 10%. IC50 values were calculated by GraphPad® by non-linear regression using the built-in log(inhibitor) vs. response-variable slope (four parameters) function.

`Cc1ccc(N2C(=O)/C(=C/c3ccc4[nH]ccc4c3)S/C2=N\c2ccc(F)cc2)cc1` [03_B_A, (2Z,5Z)-5-((1H-indol-5-yl)methylene)-2-(4-fluorophenylimino)-3-p-tolylthiazolidin-4-one] and `COc1ccc(/N=C2\S/C(=C\c3ccc4[nH]ccc4c3)C(=O)N2c2ccccc2)cc1` [03_F_N, (2Z,5Z)-5-((1H-indol-5-yl)methylene)-2-(4-methoxyphenylimino)-3-phenylthiazolidin-4-one] are within 0.2 log units of each other in pIC50: 6.12 for the first, 5.97 for the second.

`O=C1/C(=C/c2ccc3[nH]ccc3c2)S/C(=N\Cc2ccccc2)N1CCCc1ccccc1` [03_C_K, (2Z,5Z)-5-((1H-indol-5-yl)methylene)-2-(benzylimino)-3-(3-phenylpropyl)thiazolidin-4-one] and `O=C1/C(=C/c2ccc3[nH]ccc3c2)S/C(=N\Cc2ccccc2)N1CCc1ccccc1` [03_C_O, (2Z,5Z)-5-((1H-indol-5-yl)methylene)-2-(benzylimino)-3-phenethylthiazolidin-4-one] are within 0.2 log units of each other in pIC50: 6.25 for the first, 6.14 for the second.

`O=C1/C(=C/c2ccc3[nH]cnc3c2)S/C(=N\c2ccccc2)N1Cc1ccccc1` [03_N_C, (2Z,5Z)-5-((1H-benzo[d]imidazol-5-yl)methylene)-3-benzyl-2-(phenylimino)thiazolidin-4-one] and `O=C1/C(=C/c2ccc3[nH]cnc3c2)S/C(=N\c2ccccc2)N1CCCc1ccccc1` [04_N_K, (2Z,5Z)-5-((1H-benzo[d]imidazol-5-yl)methylene)-2-(phenylimino)-3-(3-phenylpropyl)thiazolidin-4-one] are within 0.2 log units of each other in pIC50: 6.21 for the first, 6.14 for the second.

`O=C1/C(=C/c2ccc3[nH]ccc3c2)S/C(=N\c2ccccc2)N1CCCc1ccccc1` [03_N_K, (2Z,5Z)-5-((1H-indol-5-yl)methylene)-2-(phenylimino)-3-(3-phenylpropyl)thiazolidin-4-one] and `O=C1/C(=C/c2ccc3[nH]ccc3c2)S/C(=N\CCc2ccccc2)N1c1ccccc1` [03_U_N, (2Z,5Z)-5-((1H-indol-5-yl)methylene)-2-(phenethylimino)-3-phenylthiazolidin-4-one] are within 0.2 log units of each other in pIC50: 6.25 for the first, 6.29 for the second.

`O=C1/C(=C/c2ccc3[nH]ccc3c2)S/C(=N\c2ccccc2)N1Cc1ccco1` [03_N_M, (2Z,5Z)-5-((1H-indol-5-yl)methylene)-3-((furan-2-yl)methyl)-2-(phenylimino)thiazolidin-4-one] and `CCCCN1C(=O)/C(=C/c2ccc3[nH]cnc3c2)S/C1=N\c1ccccc1` [04_N_G, (2Z,5Z)-5-((1H-benzo[d]imidazol-5-yl)methylene)-3-butyl-2-(phenylimino)thiazolidin-4-one] are within 0.2 log units of each other in pIC50: 6.06 for the first, 6.25 for the second.

First: CCCCCCCCCCCCN1C(=O)/C(=C/c2ccc(CO)cc2)S/C1=N\c1ccc(C)cc1 [04_A_V, (2Z,5Z)-5-(4-(hydroxymethyl)benzylidene)-2-(p-tolylimino)-3-dodecylthiazolidin-4-one]
Second: CCCCN1C(=O)/C(=C/c2ccc3[nH]cnc3c2)S/C1=N\Cc1ccccc1 [04_C_G, (2Z,5Z)-5-((1H-benzo[d]imidazol-5-yl)methylene)-2-(benzylimino)-3-butylthiazolidin-4-one]
The pIC50 of the first is lower: < 5.00 for the first, 5.97 for the second.

`CC(C)CN1C(=O)/C(=C/c2ccc3[nH]cnc3c2)S/C1=N\c1ccc(F)cc1` [04_B_X, (2Z,5Z)-5-((1H-benzo[d]imidazol-5-yl)methylene)-2-(4-fluorophenylimino)-3-isobutylthiazolidin-4-one] and `O=C1/C(=C/c2ccc3[nH]cnc3c2)S/C(=N\Cc2ccccc2)N1c1ccc(F)cc1` [04_C_B, (2Z,5Z)-5-((1H-benzo[d]imidazol-5-yl)methylene)-2-(benzylimino)-3-(4-fluorophenyl)thiazolidin-4-one] are within 0.2 log units of each other in pIC50: 6.24 for the first, 6.06 for the second.

`O=C1/C(=C/c2ccc3[nH]cnc3c2)S/C(=N\Cc2ccccc2)N1CCCc1ccccc1` [04_C_K, (2Z,5Z)-5-((1H-benzo[d]imidazol-5-yl)methylene)-2-(benzylimino)-3-(3-phenylpropyl)thiazolidin-4-one] and `O=C1/C(=C/c2ccc3[nH]cnc3c2)S/C(=N\Cc2ccccc2)N1CCc1ccccc1` [04_C_O, (2Z,5Z)-5-((1H-benzo[d]imidazol-5-yl)methylene)-2-(benzylimino)-3-phenethylthiazolidin-4-one] are within 0.2 log units of each other in pIC50: 5.94 for the first, 5.95 for the second.

Compared with `Cc1ccc(/N=C2\S/C(=C\c3ccc4[nH]cnc4c3)C(=O)N2c2ccccc2)nc1` [04_D_N, (2Z,5Z)-5-((1H-benzo[d]imidazol-5-yl)methylene)-2-(5-methylpyridin-2-ylimino)-3-phenylthiazolidin-4-one], `O=C1/C(=C/c2ccc3[nH]cnc3c2)S/C(=N\Cc2cccnc2)N1c1ccccc1` [04_S_N, (2Z,5Z)-2-((pyridin-3-yl)methylimino)-5-((1H-benzo[d]imidazol-5-yl)methylene)-3-phenylthiazolidin-4-one] is 0.26 log units higher in pIC50: 5.80 for the first, 6.06 for the second. The second is the more potent here.

In the case of `O=C1/C(=C/c2ccc3[nH]cnc3c2)S/C(=N\Cc2ccc(F)cc2)N1c1ccccc1` [04_P_N, (2Z,5Z)-5-((1H-benzo[d]imidazol-5-yl)methylene)-2-(4-fluorobenzylimino)-3-phenylthiazolidin-4-one], the pIC50 was 5.99.

same assay, conditions: Homo sapiens, U-937, U937 cells, final 100 nM AEA with 0.5 nM [3H]-AEA, 15 min at 37° C.; read-out: AEA uptake inhibition IC50

`O=C1/C(=C/c2ccc3cc[nH]c3c2)S/C(=N\c2ccccc2)N1c1ccccc1` and `O=C1/C(=C/c2ccc3occc3c2)S/C(=N\c2ccccc2)N1c1ccccc1` are within 0.2 log units of each other in pIC50: 5.64 for the first, 5.49 for the second.

Compared with `O=C1/C(=C/c2ccc3nccnc3c2)S/C(=N\c2ccccc2)N1c1ccccc1`, `O=C1/C(=C/c2ccc3scnc3c2)S/C(=N\c2ccccc2)N1c1ccccc1` is 0.22 log units lower in pIC50: 5.15 for the first, 4.93 for the second.

Going from `COc1ccc(/C=C2\S/C(=N\c3ccccc3)N(c3ccccc3)C2=O)cn1` to `COc1cc(/C=C2\S/C(=N\c3ccccc3)N(c3ccccc3)C2=O)ccn1`, the pIC50 rises from 4.81 to 5.26 (0.45 log units).

`COc1cncc(/C=C2\S/C(=N\c3ccccc3)N(c3ccccc3)C2=O)c1` and `COc1ccc(/C=C2\S/C(=N\c3ccccc3)N(c3ccccc3)C2=O)nc1` are within 0.2 log units of each other in pIC50: 5.17 for the first, 5.18 for the second.

`COc1ccnc(/C=C2\S/C(=N\c3ccccc3)N(c3ccccc3)C2=O)c1` and `COc1ccc(/C=C2\S/C(=N\c3ccccc3)N(c3ccccc3)C2=O)cc1` are within 0.2 log units of each other in pIC50: 5.80 for the first, 5.67 for the second.

Compared with `O=C1/C(=C/c2ccccc2)S/C(=N\c2ccccc2)N1c1ccccc1`, `O=C1/C(=C/c2ccccc2)S/C(=N\c2ccccc2)N1Cc1ccccc1` is 0.29 log units lower in pIC50: 5.56 for the first, 5.27 for the second.

Going from `O=C1/C(=C/c2ccc3c(c2)OCO3)S/C(=N\c2ccccc2)N1c1ccccc1` to `O=C1/C(=C/c2ccc3[nH]c(=O)oc3c2)S/C(=N\c2ccccc2)N1c1ccccc1`, the pIC50 falls from 5.47 to 5.25 (0.22 log units).

Compared with `CSc1ccc(/C=C2\S/C(=N\c3ccccc3)N(c3ccccc3)C2=O)cc1`, `Cc1ccc(/N=C2\S/C(=C\c3ccccc3)C(=O)N2c2ccccc2)cc1` is 0.49 log units higher in pIC50: 5.00 for the first, 5.49 for the second.

Compared with `O=C1/C(=C/c2ccc3sccc3c2)S/C(=N\c2ccccc2)N1c1ccccc1`, `COc1ccc(/N=C2\S/C(=C\c3ccccc3)C(=O)N2c2ccccc2)cc1` is 0.30 log units higher in pIC50: 5.33 for the first, 5.63 for the second. The second is the more potent here.

Compared with `COc1ccc(/C=C2\S/C(=N\c3ccc(C)cc3)N(c3ccccc3)C2=O)cc1`, `COc1ccc(/C=C2\S/C(=N\c3ccc(OC)cc3)N(c3ccccc3)C2=O)cc1` is 0.47 log units higher in pIC50: 5.29 for the first, 5.76 for the second. The second is the more potent here.

Compared with `COc1ccc(/C=C2\S/C(=N\Cc3ccccc3)N(c3ccccc3)C2=O)cc1`, `COc1ccc(/C=C2\S/C(=N\c3ccccc3)N(Cc3ccccc3)C2=O)cc1` is 0.72 log units lower in pIC50: 6.36 for the first, 5.64 for the second. The first is the more potent here.

`COc1ccc(/C=C2\S/C(=N\c3ccc(C)cn3)N(c3ccccc3)C2=O)cc1` and `Cc1ccc(/N=C2\S/C(=C\c3ccc4[nH]ccc4c3)C(=O)N2c2ccccc2)nc1` are within 0.2 log units of each other in pIC50: 5.55 for the first, 5.56 for the second.

First: C/N=C1\S/C(=C\c2ccc(OC)cc2)C(=O)N1c1ccccc1
Second: C/N=C1\S/C(=C\c2ccc3[nH]ccc3c2)C(=O)N1c1ccccc1
The pIC50 of the first is 0.38 log units higher: 5.16 for the first, 4.78 for the second.

`O=C1/C(=C/c2ccc3[nH]cnc3c2)S/C(=N\Cc2ccccc2)N1c1ccccc1` and `O=C1/C(=C/c2ccc3[nH]cnc3c2)S/C(=N\c2ccccc2)N1Cc1ccco1` are within 0.2 log units of each other in pIC50: 5.67 for the first, 5.74 for the second.

`O=C1/C(=C/c2ccc3[nH]ccc3c2)S/C(=N\c2ccccc2)N1Cc1ccccc1` and `CCCCN1C(=O)/C(=C/c2ccc3[nH]ccc3c2)S/C1=N\c1ccccc1` are within 0.2 log units of each other in pIC50: 6.21 for the first, 6.17 for the second.

First: CCCCN1C(=O)/C(=C/c2ccccc2)S/C1=N\c1ccccc1
Second: CCCCN1C(=O)/C(=C/c2ccc(OC)cc2)S/C1=N\c1ccccc1
The pIC50 of the first is 0.26 log units lower: 5.38 for the first, 5.64 for the second. The second is the more potent here.

First: O=C1/C(=C/c2ccccc2)S/C(=N\c2ccccc2)N1Cc1ccco1
Second: COc1ccc(/C=C2\S/C(=N\c3ccccc3)N(Cc3ccco3)C2=O)cc1
The pIC50 of the first is 0.24 log units higher: 5.74 for the first, 5.50 for the second.

In the case of `COc1ccc(/C=C2\S/C(=N\c3ccccc3)N(c3ccc(OC)cc3)C2=O)cc1`, the pIC50 was 5.14.

same assay, conditions: U937 cells, final 100 nM AEA with 0.5 nM [3H]-AEA, 15 min at 37° C.; read-out: AEA uptake IC50

Compound `Cc1ccc(N2C(=O)/C(=C/c3ccc4[nH]cnc4c3)S/C2=N\c2ccc(F)cc2)cc1` [04_B_A, (2Z,5Z)-5-((1H-benzo[d]imidazol-5-yl)methylene)-2-(4-fluorophenylimino)-3-p-tolylthiazolidin-4-one] has a pIC50 of 6.28.

Source: patent publication US10155754B2, “Substituted 2-imino-1,3-thiazolidin-4-ones as N-arachidonoylethanolamine cellular uptake inhibitors” (UNIVERSITAT BERN, priority 2014, dated 2018)
